Several values for one entry are separate records, joined by “and”; a condition that tells them apart may be missing. Equal values may be shown once.
Legend:
Type in all cases: in vivo
Rice [1] = assay: Single application to rice at tillering, yield; details: 50 grams per acre at tillering
Source text: The reaction products of the present invention, specifically N,N′-diformylurea, have been used to enhance the growth of plants. […] For example, a single application to rice at the rate of 50 grams per acre at tillering has produced a 25 percent increase in yield.

Rice [2] = assay: Greenhouse pot test, effect of diformylurea concentration applied to seeds; details: seed treated, 24 h soak, 30 days; for Roots (gm), Average / Shoots (gm), Average / Total (gm), Average: average of samples
Method: (§1) Additional experiments were designed to study further the effect of the concentration of diformylurea applied to the seeds of several other crops. These experiments were conducted using cotton, rice, corn and soybeans. These experiments were similar to the preliminary experiments described above. The concentrate described above, containing both diformylurea and formate, was used to prepare solutions containing low, medium and high concentrations of diformylurea having, respectively, 0.001 M, 0.01 M and 0.05 M diformylurea. These solutions were used to treat the seeds of cotton, rice, corn and soybeans. Seeds of each of these crops were soaked in water or the prepared aqueous solutions of diformylurea for 24 hours before planting. Five seeds were planted in each of six, 1 gallon greenhouse pots. Pots were thinned to two plants after germination and the plants watered and fertilized as needed for 30 days. Thereafter, the plants were harvested and the mass of the roots, shoots and total mass determined.

Soybean = assay: as above; details: seed treated, 24 h soak, 30 days; for Roots (gm), Average / Shoots (gm), Average / Total (gm), Average: average of samples
Method: as §1

Corn [3] = assay: as above; details: seed treated, 24 h soak, 30 days; for Roots (gm), Average / Shoots (gm), Average / Total (gm), Average: average of samples; for Roots (gm) / Shoots (gm) / Total (gm): single sample (pot)
Method: as §1

Peanuts = assay: Greenhouse pot test, foliar treatment 0.01 M diformylurea; details: foliar treated, three leaf stage, 30 days
Method: (§2) Based upon the foregoing preliminary work, additional experiments to investigate the effect of diformylurea on other plant species was undertaken. These experiments were also designed to compare the effect of treating seeds as described above with foliar treatment. Wheat, corn and peanuts were selected for the next phase of this work. Diformylurea was prepared by reacting formic acid and urea at a molar ratio of 2:1 as described above. An aqueous solution containing diformylurea at a concentration of 0.01 M was prepared. For the seed treatment portion of the experiments, the seeds to be treated were soaked in the foregoing solution for about 24 hours before planting. The control seeds were again soaked in water for the same time. Both control and treated seeds were planted in 1 gallon greenhouse pots. Five seeds were planted in each pot. Each pot was thinned to two plants after germination. For the foliar treatment portion of the experiment, plants grown from untreated seeds were sprayed with a solution containing 0.01 M. diformylurea at the three leaf stage. All plants were watered and fertilized as required. Thirty days after planting, the plants were harvested and the roots and shoots examined. The mass of both the roots and shoots and the total mass of the plant in each pot were determined.

Wheat = assay: as above; details: foliar treated, three leaf stage, 30 days
Method: as §2

Corn [4] = assay: as above; details: foliar treated, three leaf stage, 30 days
Method: as §2

O=CNC(=O)NC=O [diformylurea, N,N′-diformylurea]
increase in yield (Rice [1]): 25%
Percent Change v. Control, Roots (Rice [2]; 0.001 M): 37%
Percent Change v. Control, Shoots (Rice [2]; 0.001 M): 42%
Percent Change v. Control, Total (Rice [2]; 0.001 M): 39%
Root/Shoot Ratio (Rice [2]; 0.001 M): 1.79
Roots (gm), Average (Rice [2]; 0.001 M): 0.61 gm
Shoots (gm), Average (Rice [2]; 0.001 M): 0.34 gm
Total (gm), Average (Rice [2]; 0.001 M): 0.95 gm
Percent Change v. Control, Roots (Rice [2]; 0.01 M): 13%
Percent Change v. Control, Shoots (Rice [2]; 0.01 M): 29%
Percent Change v. Control, Total (Rice [2]; 0.01 M): 19%
Root/Shoot Ratio (Rice [2]; 0.01 M): 1.67
Roots (gm), Average (Rice [2]; 0.01 M): 0.51 gm
Shoots (gm), Average (Rice [2]; 0.01 M): 0.31 gm
Total (gm), Average (Rice [2]; 0.01 M): 0.82 gm
Percent Change v. Control, Roots (Rice [2]; 0.05 M): 82%
Percent Change v. Control, Shoots (Rice [2]; 0.05 M): 63%
Percent Change v. Control, Total (Rice [2]; 0.05 M): 76%
Root/Shoot Ratio (Rice [2]; 0.05 M): 2.13
Roots (gm), Average (Rice [2]; 0.05 M): 0.82 gm
Shoots (gm), Average (Rice [2]; 0.05 M): 0.39 gm
Total (gm), Average (Rice [2]; 0.05 M): 1.21 gm
Percent Change v. Control, Roots (Soybean; 0.001 M): 89%
Percent Change v. Control, Shoots (Soybean; 0.001 M): 29%
Percent Change v. Control, Total (Soybean; 0.001 M): 52%
Root/Shoot Ratio (Soybean; 0.001 M): 0.93
Roots (gm), Average (Soybean; 0.001 M): 9.18 gm
Shoots (gm), Average (Soybean; 0.001 M): 9.87 gm
Total (gm), Average (Soybean; 0.001 M): 19.05 gm
Roots (gm) (Soybean; 0.001 M, single sample (pot)): 7.30 gm and 8.00 gm and 11.30 gm and 12.30 gm and 7.80 gm and 8.40 gm
Shoots (gm) (Soybean; 0.001 M, single sample (pot)): 10.20 gm and 10.30 gm and 9.30 gm and 10.90 gm and 8.70 gm and 9.80 gm
Total (gm) (Soybean; 0.001 M, single sample (pot)): 17.50 gm and 18.30 gm and 20.60 gm and 23.20 gm and 16.50 gm and 18.20 gm
Percent Change v. Control, Roots (Soybean; 0.01 M): 54%
Percent Change v. Control, Shoots (Soybean; 0.01 M): 16%
Percent Change v. Control, Total (Soybean; 0.01 M): 31%
Root/Shoot Ratio (Soybean; 0.01 M): 0.84
Roots (gm), Average (Soybean; 0.01 M): 7.48 gm
Shoots (gm), Average (Soybean; 0.01 M): 8.86 gm
Total (gm), Average (Soybean; 0.01 M): 16.34 gm
Shoots (gm) (Soybean; 0.01 M, single sample (pot)): 11.20 gm and 6.00 gm and 8.30 gm and 9.90 gm and 8.90 gm
Percent Change v. Control, Roots (Corn [3]; 0.001 M): 2%
Percent Change v. Control, Shoots (Corn [3]; 0.001 M): 5%
Percent Change v. Control, Total (Corn [3]; 0.001 M): 3%
Root/Shoot Ratio (Corn [3]; 0.001 M): 1.04
Roots (gm), Average (Corn [3]; 0.001 M): 19.65 gm
Shoots (gm), Average (Corn [3]; 0.001 M): 18.85 gm
Total (gm), Average (Corn [3]; 0.001 M): 38.50 gm
Roots (gm) (Corn [3]; 0.001 M): 18.90 gm and 17.20 gm and 27.00 gm and 19.10 gm and 18.10 gm and 17.60 gm
Shoots (gm) (Corn [3]; 0.001 M): 21.10 gm and 14.00 gm and 17.60 gm and 22.00 gm and 18.90 gm and 19.50 gm
Total (gm) (Corn [3]; 0.001 M): 40.00 gm and 31.20 gm and 44.60 gm and 41.10 gm and 37.00 gm and 37.10 gm
Percent Change v. Control, Roots (Corn [3]; 0.01 M): 9%
Percent Change v. Control, Shoots (Corn [3]; 0.01 M): 7%
Percent Change v. Control, Total (Corn [3]; 0.01 M): 8%
Root/Shoot Ratio (Corn [3]; 0.01 M): 1.09
Roots (gm), Average (Corn [3]; 0.01 M): 20.92 gm
Shoots (gm), Average (Corn [3]; 0.01 M): 19.17 gm
Total (gm), Average (Corn [3]; 0.01 M): 40.09 gm
Roots (gm) (Corn [3]; 0.01 M): 16.20 gm and 25.10 gm and 24.10 gm and 20.00 gm and 15.30 gm and 24.80 gm
Shoots (gm) (Corn [3]; 0.01 M): 18.60 gm and 22.10 gm and 23.00 gm and 16.60 gm and 15.50 gm and 19.70 gm
Total (gm) (Corn [3]; 0.01 M): 34.80 gm and 47.20 gm and 47.10 gm and 36.60 gm and 30.80 gm and 44.50 gm
Percent Change v. Control, Roots (Corn [3]; 0.05 M): 0%
Percent Change v. Control, Shoots (Corn [3]; 0.05 M): −2%
Percent Change v. Control, Total (Corn [3]; 0.05 M): −1%
Root/Shoot Ratio (Corn [3]; 0.05 M): 1.09
Roots (gm), Average (Corn [3]; 0.05 M): 19.20 gm
Shoots (gm), Average (Corn [3]; 0.05 M): 17.62 gm
Total (gm), Average (Corn [3]; 0.05 M): 36.82 gm
Roots (gm) (Corn [3]; 0.05 M): 17.90 gm and 20.40 gm and 17.80 gm and 21.20 gm and 18.70 gm
Shoots (gm) (Corn [3]; 0.05 M): 17.40 gm and 20.60 gm and 15.90 gm and 18.40 gm and 15.80 gm
Total (gm) (Corn [3]; 0.05 M): 35.30 gm and 41.00 gm and 33.70 gm and 39.60 gm and 34.50 gm
Percent Change v. Control, Roots (Peanuts): 92%
Percent Change v. Control, Shoots (Peanuts): 108%
Percent Change v. Control, Total (Peanuts): 100%
Root/Shoot Ratio (Peanuts): 1.02
Roots (gm), Average (Peanuts; average of samples): 32.74 gm
Shoots (gm), Average (Peanuts; average of samples): 32.15 gm
Total (gm), Average (Peanuts; average of samples): 64.89 gm
Roots (gm) (Peanuts; single sample (pot)): 27.67 gm and 35.04 gm and 37.38 gm and 31.10 gm and 31.69 gm and 33.55 gm
Shoots (gm) (Peanuts; single sample (pot)): 28.38 gm and 30.34 gm and 33.84 gm and 32.35 gm and 36.17 gm and 31.82 gm
Total (gm) (Peanuts; single sample (pot)): 56.05 gm and 65.38 gm and 71.22 gm and 63.45 gm and 67.86 gm and 65.37 gm
Percent Change v. Control, Roots (Wheat): 14%
Percent Change v. Control, Shoots (Wheat): 108%
Percent Change v. Control, Total (Wheat): 26%
Root/Shoot Ratio (Wheat): 4.06
Roots (gm), Average (Wheat; average of samples): 23.93 gm
Shoots (gm), Average (Wheat; average of samples): 5.89 gm
Total (gm), Average (Wheat; average of samples): 29.83 gm
Shoots (gm) (Wheat; single sample (pot)): 7.48 gm and 7.53 gm and 4.44 gm and 4.62 gm and 4.00 gm and 7.28 gm
Percent Change v. Control, Roots (Corn [4]): 11%
Percent Change v. Control, Shoots (Corn [4]): 103%
Percent Change v. Control, Total (Corn [4]): 46%
Root/Shoot Ratio (Corn [4]): 0.90
Roots (gm), Average (Corn [4]; average of samples): 51.38 gm
Shoots (gm), Average (Corn [4]; average of samples): 57.31 gm
Total (gm), Average (Corn [4]; average of samples): 108.69 gm
Roots (gm) (Corn [4]; single sample (pot)): 42.40 gm and 48.44 gm and 52.48 gm and 56.22 gm and 42.18 gm and 66.57 gm
Shoots (gm) (Corn [4]; single sample (pot)): 61.80 gm and 46.17 gm and 50.59 gm and 61.12 gm and 67.57 gm and 56.61 gm
Total (gm) (Corn [4]; single sample (pot)): 104.20 gm and 84.61 gm and 103.07 gm and 117.34 gm and 109.75 gm and 123.18 gm
